For experiment [1], the system named is bTC3-derived subcutaneous transplant tumor in a nude mouse. The experiment is described as follows: Homing to bTC3 subcutaneous tumor. Format: in vivo. The following applies: FIG. 4A. On the procedure: (§1) To determine whether phage identified to home to pancreatic tumors also home to other types of tumors, these phage were tested using animals having various types of tumors, including bTC3 subcutaneous tumor and MDA MB-435 subcutaneous tumor. bTC3 transplant tumors arise following subcutaneous inoculation of nude mice with cultured islet tumor-derived (bTC3) cells (Efrat et al., 1988). Since the vasculature of a subcutaneously grown bTC3 tumor derives from skin, we also tested another subcutaneous transplant tumor, arising from inoculation of the MDA-MB-435 human breast carcinoma cell line. Finally, K14-HPV16 mice, another well-studied transgenic mouse model of cancer that develop tumors of the squamous epithelial cells of the skin (Arbeit et al., 1994; Coussens et al., 1996), was used to compare RIP1-Tag2 islet tumors to a tumor with similar multistage pathogenesis arising in a different tissue.
(§2) Tumors were dissected from the ear or chest of K14-HPV16 mice. For the bTC3 allograft models, 10^6 bTC3 tumor cells (Efrat et al., 1988) were inoculated under the skin of the rear flank of nu/nu mice in a BALB/c background and allowed to grow until approximately 5 mm in size, and then used for experimental analysis. MDA-MB-435 xenograft models were generated by inoculating 10^6 tumor cells subcutaneously in the chest of nu/nu Balb/c mice. Tumors were used for the homing/binding experiments at 8-12 weeks after injection of the tumor cells.

The target in a further experiment is T1, PDGFRβ (Homo sapiens, UniProt P09619).
T1 construct: expressed in transfected cells; host or cells: 293T cells
The experiment is described as follows: Phage binding to transfected 293T cells (plaque assay). Conditions: FIG. 5A. The method, then: To confirm that the RGR peptide binds specifically to PDGFRβ, phage displaying this peptide were incubated with 293T cells overexpressing PDGFRβ. Recombinant 293T cells were prepared by transfecting with plasmids encoding PDGFRβ or VEGFR-2 (Borges et al., 2000) using Fugene transfection reagent (Roche Diagnostics). Briefly, 10 μg of plasmid was mixed with 700 μl of DMEM without serum and 30 μl of Fugene reagent, and incubated for 15 minutes at room temperature before adding the mixture to the cells. Forty-eight hours post-transfection the cells were detached from the culture plates using EDTA and washed once with PBS. Recombinant phage displaying the RSR, RGR peptides and control nonrecombinant phage (about 1×10^9 pfu) were incubated with the transfected cells for 2 hours at 4° C., followed by 5 washes with 1% BSA in PBS to remove the unbound phage. The bound phage were rescued by adding bacteria, and the binding efficiencies were determined by plaque assay.

For experiment [2], the system named is RIP1-Tag2 pancreatic tumor, bTC3-derived subcutaneous transplant tumor, K14-HPV16 squamous cell carcinoma. The experiment is described as follows: Relative homing efficiency of individual phage in various tumor models (FIG. 4A). The following applies: phage from the RIP1-Tag2 tumor screen. In kind it is in vivo, mouse. The method, then: as §1, §2
FIG. 4A is bar graph showing homing efficiency of individual phage to a pancreatic tumor in a RIP1-Tag2 mouse, a bTC3-derived subcutaneous transplant tumor in a nude mouse, and a squamous cell carcinoma in a K14-HPV16 mouse.

Experiment [3] has as its system endothelial cell and pericyte markers (MECA-32, NG2). The experiment is described as follows: Co-localization of fluorescein-conjugated peptides with vascular markers. In kind it is in vivo, mouse. The following applies: fluorescein-conjugated peptide i.v. On the procedure: To confirm that intravenous administration of phage libraries selects for phage carrying peptides that bind to endothelial molecules specific for the target vasculature, tissues were collected following i.v. infusion with the various fluorescein-conjugated peptides, sectioned, and evaluated with endothelial cell markers.
For immunohistochemistry, frozen slides were pre-incubated with blocking buffer (1×PNB from NEN Biosciences) for one hour, washed several times in 1×PBS and incubated with the primary antibody of interest overnight at 4° C. The cell-specific antibodies used were rat monoclonal anti-mouse CD31 (1:200; BD Pharmingen), rat monoclonal anti-mouse MECA-32 (1:200; BD Pharmingen), rabbit polyclonal anti-mouse NG2 (1:200; Chemicon), and rat monoclonal anti-mouse PDGFRb (CD140b) (1:200; eBioscience). The corresponding secondary antibodies; Cy-3 donkey anti-rabbit IgG and Rhodamine Red donkey anti-rat IgG (Jackson ImmunoResearch), were used at a 1:200 dilution and incubated for one hour at room temperature. The following species-matched immunoglobulins were used as negative controls; rabbit IgG (Vector Laboratories) and rat IgG (Jackson ImmunoResearch) at a 1:200 dilution. The slides were washed several times in 1×PBS and mounted in Vectashield Mounting Medium with DAPI (Vector Laboratories). Hematoxylin and eosin (H&E) staining was performed for histological grading of adjacent sections by standard methods, and lesions were graded as previously described (Lopez and Hanahan, 2002).
The primary analysis involved immunostaining with a mouse pan-endothelial cell antigen (MECA-32) antibody that recognizes a dimer of 50-55 kDa protein subunits present on all endothelial cells (Hallman et al., 1995; Leppink et al., 1989) (FIG. 3 B,C,H,I,N,O). Additional analyses involved immunostaining to reveal CD31/PE-CAM, or systemic infusion of a fluorescent-labeled lectin that binds to the endothelial lumen. In addition, tissue sections from peptide-infused mice were stained with an antibody recognizing NG2, a marker of the neovascular pericytes (Schlingemann et al., 1990, 1991) (FIG. 3 E,F,K,L,Q,R).

Experiment [4] has as its system RIP1-Tag2 angiogenic islets and tumors. The experiment is described as follows: Localization of fluorescein-conjugated peptides after intravenous injection. In kind it is in vivo, mouse. The method, then:
Fluorescein-conjugated peptides corresponding to phage insert sequences were synthesized using an automated peptide synthesizer with standard solid-phase fluorenylmethoxycarbonyl (Fmoc) chemistry. […] of each individual fluorescein-conjugated peptide was injected intravenously into the tail vein of RIP1-Tag2 mice at 8 or 12 weeks of age, and into normal BL/6 mice. The peptide was allowed to circulate for 7 minutes, followed by heart perfusion first with PBS and then with Zn-buffered formalin. The RIP1-Tag2 pancreas and control organs (brain, kidney, liver, lung and spleen) were removed, fixed for one hour in formalin, washed with 1×PBS, placed in 30% sucrose for several hours, washed with 1×PBS, and embedded in OCT (Tissue-Tek). Each peptide was injected into at least three individual RIP1-Tag2 or normal mice at each of the different stages. To examine the localization of injected fluorescein-conjugated peptides, frozen sections ([…] thick) were cut on a cryostat, mounted in Vectashield Mounting Medium with DAPI (Vector Laboratories) and visualized under an inverted fluorescent microscope or a confocal microscope (Zeiss LSM 510 META).

[5] abbreviates: fluorescein-conjugated peptide i.v., 7 minutes circulation, FIG. 2.

Entries after “also recorded” stand apart in the source; their conditions may differ.

T1 sequence (P09619 33-1106, species assumed): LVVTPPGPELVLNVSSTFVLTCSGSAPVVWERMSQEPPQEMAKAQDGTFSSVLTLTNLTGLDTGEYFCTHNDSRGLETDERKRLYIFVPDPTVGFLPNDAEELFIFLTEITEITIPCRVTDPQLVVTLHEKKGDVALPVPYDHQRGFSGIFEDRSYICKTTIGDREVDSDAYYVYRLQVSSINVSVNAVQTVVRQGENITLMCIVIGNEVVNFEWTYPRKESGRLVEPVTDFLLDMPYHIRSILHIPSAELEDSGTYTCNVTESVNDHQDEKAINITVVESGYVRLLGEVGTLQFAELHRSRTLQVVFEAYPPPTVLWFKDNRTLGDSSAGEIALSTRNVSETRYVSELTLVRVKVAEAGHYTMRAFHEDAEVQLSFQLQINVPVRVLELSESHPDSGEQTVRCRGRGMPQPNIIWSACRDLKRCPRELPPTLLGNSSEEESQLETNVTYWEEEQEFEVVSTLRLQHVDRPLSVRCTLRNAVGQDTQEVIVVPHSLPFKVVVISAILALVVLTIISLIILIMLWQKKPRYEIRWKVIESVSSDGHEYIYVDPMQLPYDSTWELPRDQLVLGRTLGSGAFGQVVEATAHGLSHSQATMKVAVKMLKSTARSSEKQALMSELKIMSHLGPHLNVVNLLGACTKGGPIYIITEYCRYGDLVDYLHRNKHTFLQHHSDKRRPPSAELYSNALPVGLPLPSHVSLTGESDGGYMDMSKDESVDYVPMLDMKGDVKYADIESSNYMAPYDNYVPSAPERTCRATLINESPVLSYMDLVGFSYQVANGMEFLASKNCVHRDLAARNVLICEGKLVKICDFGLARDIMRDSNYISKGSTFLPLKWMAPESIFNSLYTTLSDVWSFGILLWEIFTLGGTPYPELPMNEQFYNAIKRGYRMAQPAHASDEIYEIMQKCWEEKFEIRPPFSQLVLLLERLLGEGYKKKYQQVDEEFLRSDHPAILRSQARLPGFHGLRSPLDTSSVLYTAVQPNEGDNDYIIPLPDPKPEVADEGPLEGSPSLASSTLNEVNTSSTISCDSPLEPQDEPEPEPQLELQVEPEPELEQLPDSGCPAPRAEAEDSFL

Turning to CRGRRST [linear homing peptide], in experiment [1], the “homing to TC3 tumor” value is given as “did not home appreciably”. Also, the “binding to PDGFRβ-transfected cells” value with PDGFRβ is “bind”. Also, the “relative homing efficiencies in the various tumor models (category)” value in experiment [2] is on record as “selectively home to RIP1-Tag2 tumors”. Besides, the “co-localization with MECA-32 or NG2 in adjacent exocrine pancreas or normal pancreatic islets” value in experiment [3] is “no co-localization”. For the same substance, the “co-localization with endothelial cell and pericyte markers in RIP1-Tag2 islet lesions” value in experiment [3] (MECA-32, NG2, FIG. 3) is “some co-localization both with endothelial cell and pericyte markers; also recorded: co-localized both with the endothelial cell and pericyte markers”. In addition, in experiment [4] (setting [5]), the “localization in RIP1-Tag2 angiogenic islets” value was “localizes”, the “localization in RIP1-Tag2 tumors” value is “localizes” and the “localization in normal islets” value was “little or no localization”. Further, the “homing selectivity of purified peptides” value in experiment [4] (i.v. into 8-week or 12-week old RIP-Tag2 mice) was “both angiogenic islets and tumors”. Further, in experiment [4] (purified peptides i.v.), the “homing to normal islets, kidney, brain, liver, lung or spleen” value was “did not appreciably home”.
